Experimental data: US8404669B2, “Kinase modulating compounds and uses thereof for treatment of cancer” (University of Florida Research Foundation, Inc., priority 2007, dated 2013)
Entries after “also recorded” stand apart in the source; their conditions may differ. Ends that are not written are not given here.

Columns and labels:
[1] = target: T1, FAK and VEGFR-3 interaction (Homo sapiens, UniProt Q05397); assay: FAK and VEGFR-3 interaction and colocalization (immunofluorescence confocal microscopy, FRET); assay type: cell-based; settings: for colocalization of FAK and VEGFR-3 in the cells: confocal microscopy
T1 construct: endogenous in cells; BT474 for the FAK/VEGFR-3 staining
T1 sequence (Q05397 2-1052 limits assumed): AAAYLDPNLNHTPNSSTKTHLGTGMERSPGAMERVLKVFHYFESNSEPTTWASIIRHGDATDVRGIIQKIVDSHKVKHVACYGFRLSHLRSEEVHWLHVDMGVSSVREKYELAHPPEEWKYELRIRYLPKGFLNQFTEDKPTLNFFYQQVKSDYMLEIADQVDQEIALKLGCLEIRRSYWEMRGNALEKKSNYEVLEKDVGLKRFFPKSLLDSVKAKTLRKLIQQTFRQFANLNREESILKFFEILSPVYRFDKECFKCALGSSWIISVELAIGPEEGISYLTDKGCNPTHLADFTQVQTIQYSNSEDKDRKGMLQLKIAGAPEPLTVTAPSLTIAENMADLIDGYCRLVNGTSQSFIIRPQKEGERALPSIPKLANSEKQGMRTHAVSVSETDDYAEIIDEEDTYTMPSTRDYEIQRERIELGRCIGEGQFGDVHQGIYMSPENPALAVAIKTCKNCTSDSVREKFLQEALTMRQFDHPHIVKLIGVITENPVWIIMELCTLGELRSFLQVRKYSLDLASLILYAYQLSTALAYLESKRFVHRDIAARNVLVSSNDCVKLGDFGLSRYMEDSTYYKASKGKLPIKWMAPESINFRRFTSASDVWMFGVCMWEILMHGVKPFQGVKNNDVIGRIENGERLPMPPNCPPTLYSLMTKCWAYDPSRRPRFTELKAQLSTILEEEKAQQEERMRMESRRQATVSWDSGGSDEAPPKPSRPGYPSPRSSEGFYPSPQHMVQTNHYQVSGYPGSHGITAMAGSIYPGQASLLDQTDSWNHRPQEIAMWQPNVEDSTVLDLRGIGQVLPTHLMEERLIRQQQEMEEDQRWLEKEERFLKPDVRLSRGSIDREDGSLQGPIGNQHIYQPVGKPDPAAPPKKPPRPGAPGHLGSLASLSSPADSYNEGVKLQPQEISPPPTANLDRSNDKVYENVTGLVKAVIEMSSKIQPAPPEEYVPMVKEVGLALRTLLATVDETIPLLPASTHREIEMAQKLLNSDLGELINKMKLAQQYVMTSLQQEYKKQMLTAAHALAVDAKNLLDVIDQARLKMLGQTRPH
Protocol: (§1) Furthermore, these compounds sensitized the cancer cells to chemotherapy. […] See, FIGS. 3-14.
(§2) FIG. 1.3. […] FAK and VEGFR-3 in BT474 cells were stained for FAK with a Texas Red-conjugated secondary antibody and VEGFR-3 with a Alexa Fluor 488-conjugated secondary antibody and then viewed with a Leica confocal microscope. After 24 hours of peptide-AV3 (black) treatment, staining was repeated, proliferation was measured by MTT assay, apoptosis was measured by Hoechst staining and TUNEL Assay. Control scrambled peptide-AV3S (white) was also used in all experiments. (FIG. 1.10, STEP 2A).

[2] = target: T2, FAK in focal adhesions of BT474 cells (Homo sapiens, UniProt Q05397); assay: Displacement of FAK from focal adhesions (dual colour staining, confocal microscopy); assay type: cell-based; settings: 24 hours of peptide treatment
T2 construct: specific displacement of FAK from the focal adhesions of the tumor cells; endogenous in cells; host or cells: tumor cells; BT474 named for the focal adhesion staining
T2 sequence (Q05397 whole entry): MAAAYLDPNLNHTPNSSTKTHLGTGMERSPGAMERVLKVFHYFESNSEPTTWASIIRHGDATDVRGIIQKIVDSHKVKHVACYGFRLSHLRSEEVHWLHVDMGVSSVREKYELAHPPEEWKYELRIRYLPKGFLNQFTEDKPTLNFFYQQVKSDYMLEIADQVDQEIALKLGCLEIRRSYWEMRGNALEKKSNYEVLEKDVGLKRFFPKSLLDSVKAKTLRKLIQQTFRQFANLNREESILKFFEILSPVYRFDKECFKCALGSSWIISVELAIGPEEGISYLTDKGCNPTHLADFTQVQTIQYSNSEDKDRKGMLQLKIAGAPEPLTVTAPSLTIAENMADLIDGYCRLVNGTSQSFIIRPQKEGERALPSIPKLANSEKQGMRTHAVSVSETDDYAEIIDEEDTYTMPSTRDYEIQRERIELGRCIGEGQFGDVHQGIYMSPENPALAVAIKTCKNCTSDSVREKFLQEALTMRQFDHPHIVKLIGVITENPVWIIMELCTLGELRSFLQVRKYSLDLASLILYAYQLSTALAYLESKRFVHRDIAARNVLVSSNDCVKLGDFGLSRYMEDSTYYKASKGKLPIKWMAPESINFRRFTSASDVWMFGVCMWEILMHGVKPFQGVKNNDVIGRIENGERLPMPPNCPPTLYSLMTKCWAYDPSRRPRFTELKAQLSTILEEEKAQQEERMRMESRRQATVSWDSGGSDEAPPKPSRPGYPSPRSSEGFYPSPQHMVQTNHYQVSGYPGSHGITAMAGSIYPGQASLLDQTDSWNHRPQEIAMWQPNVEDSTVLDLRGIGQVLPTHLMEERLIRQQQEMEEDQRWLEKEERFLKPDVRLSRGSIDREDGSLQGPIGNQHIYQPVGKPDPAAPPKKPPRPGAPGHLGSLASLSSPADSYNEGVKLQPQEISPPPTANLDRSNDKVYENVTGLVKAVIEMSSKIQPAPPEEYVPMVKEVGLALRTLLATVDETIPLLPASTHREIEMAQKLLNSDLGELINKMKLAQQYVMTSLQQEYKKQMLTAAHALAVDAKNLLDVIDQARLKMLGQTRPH
Protocol: (§3) Measurement of FAK-specific effect. The readout of a FAK-specific effect of selected in silico small molecules is specific displacement of FAK from the focal adhesions of the tumor cells. Tumor cells are doubly stained with FAK and paxillin using dual color techniques and extensive biochemical analyses of effects on FAK signaling are performed, essentially as previously published. See, Garces, C. A., et al., Vascular Endothelial Growth Factor Receptor-3 and Focal Adhesion Kinase Bind and Suppress Apoptosis in Breast Cancer Cells. Cancer Res % R 10.1158/0008-5472.CAN-05-1661, 2006. 66(3): p. 1446-1454; Xu, L.-h., et al., The focal adhesion kinase suppresses transformation-associated, anchorage-Independent apoptosis in human breast cancer cells. J. Biol. Chem., 2000. 275: p. 30597-30604; Kurenova, E., et al., Focal Adhesion Kinase Suppresses Apoptosis by Binding to the Death Domain of Receptor-Interacting Protein. Mol. Cell. Biol., 2004. 24(10): p. 4361-4371.
as §2, with “Control scrambled peptide-AV3S (white) was also used in all experiments. (FIG. 1.10, STEP 2A).” left out

breast cancer cell lines = assay: Peptide effect on proliferation (MTT), detachment and apoptosis (Hoechst, TUNEL) in breast cancer cell lines; assay type: cell-based, human; settings: 24 hours
Protocol: as §2

FAK = target: T3, FAK (Homo sapiens, UniProt Q05397); assay: FAK dephosphorylation in cells; assay type: cell-based
T3 construct: specific displacement of FAK from the focal adhesions of the tumor cells; endogenous in cells; host or cells: tumor cells; BT474 named for the focal adhesion staining
T3 sequence (Q05397 whole entry): as above
Protocol: as §3

PARP = PARP down-regulation; assay type: cell-based
From the text: As such, these compounds are useful as therapeutic agents.

VEGFR-3 = target: T4, VEGFR-3 (Homo sapiens, UniProt P35916); assay: VEGFR-3 dephosphorylation in cells; assay type: cell-based
T4 construct: expressed in transfected cells
T4 sequence (P35916 25-1363): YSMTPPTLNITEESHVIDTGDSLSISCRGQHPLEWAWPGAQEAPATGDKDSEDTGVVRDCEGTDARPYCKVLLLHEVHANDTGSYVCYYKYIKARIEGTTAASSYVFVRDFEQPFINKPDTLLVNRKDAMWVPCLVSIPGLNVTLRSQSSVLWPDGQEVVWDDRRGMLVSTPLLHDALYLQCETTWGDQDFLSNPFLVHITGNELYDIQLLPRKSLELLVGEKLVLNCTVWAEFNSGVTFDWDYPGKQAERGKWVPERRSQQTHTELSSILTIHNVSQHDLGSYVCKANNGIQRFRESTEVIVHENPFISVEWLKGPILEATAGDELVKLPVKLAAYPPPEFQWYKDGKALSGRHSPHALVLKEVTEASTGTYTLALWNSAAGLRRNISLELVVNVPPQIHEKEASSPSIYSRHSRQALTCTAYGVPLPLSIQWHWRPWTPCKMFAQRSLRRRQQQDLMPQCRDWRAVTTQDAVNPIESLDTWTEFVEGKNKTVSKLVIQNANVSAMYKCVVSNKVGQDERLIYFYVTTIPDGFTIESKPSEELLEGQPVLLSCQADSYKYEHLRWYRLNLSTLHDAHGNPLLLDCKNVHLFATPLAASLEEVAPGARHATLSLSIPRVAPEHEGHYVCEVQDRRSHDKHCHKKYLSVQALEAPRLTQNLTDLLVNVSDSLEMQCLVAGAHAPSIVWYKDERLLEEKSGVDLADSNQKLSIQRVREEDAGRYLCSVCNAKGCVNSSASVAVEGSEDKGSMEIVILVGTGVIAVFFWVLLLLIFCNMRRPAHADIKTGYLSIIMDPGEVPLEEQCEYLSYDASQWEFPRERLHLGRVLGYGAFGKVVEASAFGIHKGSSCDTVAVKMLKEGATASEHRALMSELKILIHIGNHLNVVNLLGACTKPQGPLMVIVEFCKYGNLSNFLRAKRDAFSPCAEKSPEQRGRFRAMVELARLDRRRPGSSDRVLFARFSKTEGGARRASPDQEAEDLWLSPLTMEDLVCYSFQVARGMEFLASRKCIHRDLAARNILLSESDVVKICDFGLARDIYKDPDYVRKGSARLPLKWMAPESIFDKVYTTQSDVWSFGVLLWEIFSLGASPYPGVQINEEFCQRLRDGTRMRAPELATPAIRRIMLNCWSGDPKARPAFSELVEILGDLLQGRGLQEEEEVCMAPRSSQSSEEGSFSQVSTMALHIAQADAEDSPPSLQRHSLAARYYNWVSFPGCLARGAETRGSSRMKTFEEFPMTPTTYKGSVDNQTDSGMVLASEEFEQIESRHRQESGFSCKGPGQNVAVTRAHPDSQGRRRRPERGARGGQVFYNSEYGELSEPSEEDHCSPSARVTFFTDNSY

[3] = test system: cancer cells, including breast, colon, pancreatic, melanoma, lung, osteosarcoma; assay: Cancer cell viability and proliferation assays (CellTiter 96, CellTiter-Blue, MTT); assay type: cell-based, human
Protocol: Cell-based assays. Selected small molecules are evaluated in cell-based proliferation and apoptosis assays in model system of BT474 and MCF7 breast cancer cells and normal MCF10 cells. Other cells lines relevant for study are MiaPaCa-2 and PANC-1 (pancreatic cancer), A375 (melanoma), A549 (lung cancer), HT29 and COLO5 (colon cancer), SAOS (osteosarcoma), HCT116 p53(−/−) and HCT116 p53(+/+) (colon cancer) and C8186 (melanoma). The multiplex approach to analyze more than one parameter from the same culture well is used.
CellTiter 96 Aqueous One Solution Cell Proliferation Assay (Promega). The assay is performed by adding a small amount of the One Solution Reagent directly to culture wells, incubating for 1-4 hours and then recording absorbance at 490 nm with a spectrophotometric plate reader. The quantity of formazan product as measured by the amount of 490 nm absorbance is directly proportional to the number of living cells in culture;
The CellTiter-Blue Cell Viability Assay (Promega). CellTiter-Blue Reagent is added directly to each well (20μ reagent to each 100μ of medium in 96-well format), the plates are incubated at 37° C., and the fluorescent signal is measured (560Ex/590Em). This test can be combined with additional assays. The caspase activity is measured in the same wells by adding 120μ of the Apo-ONE Homogeneous Caspace-3/7 Assay Reagent (Promega). […]

cancer cells [4] = assay: Cell cycle and apoptosis of cancer cells; assay type: cell-based, human
Protocol: Cell-based assays. Selected small molecules are evaluated in cell-based proliferation and apoptosis assays in model system of BT474 and MCF7 breast cancer cells and normal MCF10 cells. Other cells lines relevant for study are MiaPaCa-2 and PANC-1 (pancreatic cancer), A375 (melanoma), A549 (lung cancer), HT29 and COLO5 (colon cancer), SAOS (osteosarcoma), HCT116 p53(-/-) and HCT116 p53(+/+) (colon cancer) and […] (melanoma). The multiplex approach to analyze more than one parameter from the same culture well is used. The CellTiter-Blue Cell Viability Assay (Promega). CellTiter-Blue Reagent is added directly to each well (20μ reagent to each 100μ of medium in 96-well format), the plates are incubated at 37° C., and the fluorescent signal is measured (560Ex/590Em). This test can be combined with additional assays. The caspase activity is measured in the same wells by adding 120μ of the Apo-ONE Homogeneous […]-3/7 Assay Reagent (Promega). Cells are incubated for an additional hour at ambient temperature prior to recording fluorescence (485Ex/527Em);

cancer cells [5] = assay: Motility and invasiveness of cancer cells; assay type: cell-based
[6] = test system: MCF7 cells overexpressing wt VEGFR3; assay: Viability of stable clone overexpressing wt VEGFR3 in MCF7 cells; assay type: cell-based, human; settings: 1 mM
[7] = test system: MCF7 control clone transfected with the vector pcDNA3; assay: Viability of control MCF7 clone transfected with vector pcDNA3; assay type: cell-based, human; settings: 1 mM
cancer cells [8] = assay: Dual treatment of cancer cells with C4 and chemotherapeutic drugs; assay type: cell-based, human
From the text: FIG. 1.9. Dual treatment of cancer cells with C4 compound and chemotherapeutic drugs. […] Concentrations correspond to IC50 cell-specific concentration for all used drugs.

[9] = test system: subcutaneous xenograft models of breast and pancreatic cancers; assay: Subcutaneous xenograft models in nude mice, tumor growth; assay type: in vivo; settings: for anticancer effect on tumor growth in vivo: single agent, mouse xenograft
From the text: as §1

“WHWRPWTPCKMF (also: TAT penetration sequence coupled for cell tests) [peptide-AV3]” was tested, and the “colocalization of FAK and VEGFR-3 in the cells” value [1] was “affected co-localization of FAK and VEGFR-3; also recorded: affected colocalization of FAK and VEGFR-3”, the “displacement of FAK from the focal adhesions” value [2] was “caused specific displacement of FAK from the focal adhesions” and the “displacement of FAK from the focal adhesions” value ([2]; listed as Peptide-AV3) was “causes specific displacement of FAK from the focal adhesions”. For the same molecule, the “cell detachment in breast cancer cell lines” value (breast cancer cell lines) was “caused cell detachment”, the “cell detachment in breast cancer cell lines” value (breast cancer cell lines; listed as Peptide-AV3) was “increased detachment” and the “apoptosis in breast cancer cell lines” value (breast cancer cell lines; Hoechst staining and TUNEL) was “apoptosis”. For the same molecule, the “proliferation of breast cancer cell lines” value (breast cancer cell lines; MTT) was “decreased proliferation”.
With `COC(=O)Nc1nc2ccc(C(=O)C3CC3)cc2[nH]1` [Compound D4, methyl N-[5-(cyclopropanecarbonyl)-3H-benzoimidazol-2-yl]carbamate] the “phosphorylation of Y397” value (FAK) was “cause de-phosphorylation of Y397” and the PARP level (PARP) was “causes PARP down-regulation”.
`CN(C)CCN(Cc1ccc(Cl)cc1)c1ccccn1` [Compound C4, N′-[(4-chlorophenyl)methyl]-N,N-dimethyl-N′-pyridin-2-yl-ethane-1,2-diamine] was tested, and the FAK phosphorylation (FAK) was “specifically dephosphorylates FAK and VEGFR-3”, the VEGFR-3 phosphorylation (VEGFR-3) was “specifically dephosphorylates FAK and VEGFR-3” and the “dephosphorylation of VEGFR3” value (VEGFR-3; treatment for 24 h with 10 mM compound) was “caused dephosphorylation of VEGFR3”. For the same molecule, the “FAK and VEGFR-3 interaction” value [1] was “disrupts their interaction”, the “colocalization of FAK and VEGFR-3 in the cells” value [1] was “decrease in their colocalization in the cells” and the cell proliferation [3] was “delay in cell proliferation”. For the same molecule, the “viability of cancer cells” value ([3]; in vitro) was “decreases viability of many different types of cancer cells”, the cell cycle (cancer cells [4]) was “blockage at G1/S cell cycle transition” and the “apoptosis of cancer cells” value (cancer cells [4]; in vitro) was “apoptosis of cancer cells; also recorded: causes apoptosis in pancreatic and breast cancer cells in vitro”. The “motility and invasiveness of cancer cells” value (cancer cells [5]) was “reduces motility and invasiveness of cancer cells”, the “viability of VEGFR3 clone” value [6] was “reproducible decrease in viability” and the “viability of control clone” value [7] was “resistant to this concentration of the drug”. For the same molecule, the “effect of dual treatment with doxorubicin” value (cancer cells [8]; C4 combined with doxorubicin, IC50 cell-specific concentrations) was “At least additive effect is very pronounced”, the “cell viability in combination with chemotherapy (sensitization)” value (cancer cells [8]; in combination with Doxorubicin and Gemcitabine, in vitro) was “improved effect on decrease of cells viability; also recorded: sensitizes pancreatic cancer and breast cancer cells to chemotherapy treatment in vitro” and the “reduction of tumor growth in comparison with nontreated tumors” value ([9]; 60 mg/kg, daily intraperitoneal injections, nude mice) was “up to 75%”. The “tumor growth after treatment withdrawal” value ([9]; C4 combined with Gemcitabine, pancreatic tumor) was “prolonged cytostatic effect on pancreatic tumor growth after treatment withdrawal”, the “anticancer effect in combination with Gemcitabine” value ([9]; C4 combined with Gemcitabine, versus each drug separately) was “much stronger anticancer effect than each of the drugs separately” and the “tumor growth compared with doxorubicin” value ([9]; breast cancer) was “decreases tumor growth better than doxorubicin”. The “anticancer effect on tumor growth in vivo” value [9] was “strong anticancer effect; also recorded: reduces tumor growth in vivo in mouse model of breast cancer and pancreatic cancer”.
In the case of `Cc1cc(C)nc(Nc2nc3cc([N+](=O)[O-])ccc3[nH]2)n1` [Compound D5, (4,6-Dimethyl-pyrimidin-2-yl)-(5-nitro-1H-benzoimidazol-2-yl)-amine], the “phosphorylation of Y397” value (FAK) is reported as “cause de-phosphorylation of Y397”.
`COc1ccc(NC(=O)Nc2cc(Cl)ccc2OC)c(Cl)c1` [Compound D6, 1-(2-chloro-4-methoxy-phenyl)-3-(5-chloro-2-methoxy-phenyl) urea] was tested, and the “phosphorylation of Y397” value (FAK) was “cause de-phosphorylation of Y397”.
`CN(C)CCOC(c1ccccc1)c1ccccc1` [Benadryl, reference compound] was tested, and the “anticancer effect on tumor growth in vivo” value [9] was “no any anticancer properties”.
